The source of these data is patent US20040042961A1, “Development of an in vivo functional assay for proteases” (priority 2002, published 2004).

Data set [1] addresses T1, non-active preprocathepsin L (C25A) mutant (Homo sapiens, UniProt P07711, C138A).
T1 construct: The C-terminus of the full length human preprocathepsin L is fused in frame to the N-terminus of GFP; GFP (Aequorea victoria, F64L/S65C/I167T/K238N) via BglII-NheI linker (C); expressed in transfected cells
Description: Control, mutant preprocathepsin L-GFP (C25A) in HeLa-rtTA cells, 96-well plate reader. The format is cell-based. The settings on record: 0-60 μM, 48 h. The protocol: (§1) Adaptation of the assay to a 96-well plate format—The intracellular assay was performed in a 96-well microplate format using a plate reader to monitor GFP fluorescence. Three different inhibitors were used for the plate assay: Cbz-LeuLeuTyr-CHN2, Cbz-LeuLeuTyr-CH2F and E-64. These compounds are all irreversible inhibitors of cysteine proteases. Prior to measuring the fluorescence, the stably transfected pools of HeLa-rtTA cells were induced with doxycycline and cultured in presence of various concentrations of the inhibitors for 48 h.
FIG. 15 Adaptation of the intracellular assay to a high-throughput screening format. The assay was carried out in a 96-well microplate and fluorescence was measured using the Cytofluor. The expression of GFP fusion proteins was induced for 48 h in the presence of several inhibitors. Cell viability was determined using the MTT dye reduction assay. The average of triplicate values and the standard deviation for fluorescence and cell viability were expressed as a function of inhibitor concentration. Panel A. Relative fluorescence (fold/control) of cells expressing the wild-type preprocathepsin L-GFP fusion protein treated with various inhibitors. Panel B. The relative fluorescence of cells expressing the mutant preprocathepsin L-GFP (C25A) fusion protein in response to treatment with several inhibitors. Panel C. […]

The target of data set [2] is T2, cathepsin L (Homo sapiens, UniProt P07711).
T2 construct: The C-terminus of the full length human preprocathepsin L is fused in frame to the N-terminus of GFP; GFP (Aequorea victoria, F64L/S65C/I167T/K238N) via BglII-NheI linker (C); expressed in transfected cells
T2 sequence (P07711 18-333 limits assumed): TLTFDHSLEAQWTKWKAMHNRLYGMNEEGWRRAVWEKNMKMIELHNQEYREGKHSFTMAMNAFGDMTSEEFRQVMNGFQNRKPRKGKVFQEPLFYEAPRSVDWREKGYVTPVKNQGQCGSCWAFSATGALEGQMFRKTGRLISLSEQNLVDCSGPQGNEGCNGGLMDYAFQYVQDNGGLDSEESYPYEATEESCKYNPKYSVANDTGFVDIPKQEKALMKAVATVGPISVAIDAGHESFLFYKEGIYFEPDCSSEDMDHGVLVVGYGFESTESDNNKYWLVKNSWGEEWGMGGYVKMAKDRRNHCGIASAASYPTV
Description: Intracellular cathepsin L assay, wild type preprocathepsin L-GFP in HeLa-rtTA cells, FACS. To be noted: 48 h. The format is cell-based. As to the method: (§2) A potent cathepsin L irreversible inhibitor, Cbz-LeuLeuTyr-CHN2, was also used in this experiment. To induce cathepsin L-GFP expression, the cells were cultured in the presence of doxycycline for 48 h. […] Fluorescence that corresponds to GFP, however, is found in the peaks at higher fluorescence levels (FIGS. 13B,C). This can be observed in all cell populations expressing GFP. […] In the absence of inhibitor, the active enzyme hydrolyzes most of the GFP substrate, resulting in low fluorescence levels. […] It must be noted also that the low level of cellular fluorescence increases slightly in presence of the inhibitor, possibly due to effects on cellular events.
(§3) FIG. 13 Characterization of GFP fluorescence by FACS analysis. Expression of GFP fusion proteins was induced in the presence or absence of Z-Leu-Leu-Tyr-CHN2 inhibitor for 48 h, and the fluorescence was measured by FACS . Panel A. The fluorescence histograms of non-30 transfected HeLa-rtTA cells, cultured in absence (shaded) or in presence of 35 μM inhibitor (superimposed). A shift of the superimposed histogram depicts an increase of the background fluorescence in response to the inhibitor (see text for more details). Panel B. The fluorescence histograms of cells expressing the mutant preprocathepsin L-GFP (C25A) fusion protein, grown in absence (shaded) and in presence (superimposed) of 35 μM inhibitor. Panel C. […]

In data set [3] the target is T1, non-active preprocathepsin L (C25A) mutant. Description: Control, mutant preprocathepsin L-GFP (C25A) in HeLa-rtTA cells, FACS. The format is cell-based. The settings on record: inactive cathepsin L (C25A), up to 35 μM inhibitor, 48 h. The protocol:
as §2, §3

The subject of data set [4] is HeLa-rtTA cells. Description: Cell viability, MTT dye reduction assay. The format is cell-based. The settings on record: 48 h; for Effect on cell viability: 0-60 μM, wild type and mutant fusion cells; for Cell viability: 60 μM. As to the method:
(§4) FIG. 15 Adaptation of the intracellular assay to a high-throughput screening format. The assay was carried out in a 96-well microplate and fluorescence was measured using the Cytofluor. The expression of GFP fusion proteins was induced for 48 h in the presence of several inhibitors. Cell viability was determined using the MTT dye reduction assay. The average of triplicate values and the standard deviation for fluorescence and cell viability were expressed as a function of inhibitor concentration. Panel A. Relative fluorescence (fold/control) of cells expressing the wild-type preprocathepsin L-GFP fusion protein treated with various inhibitors. Panel B. The relative fluorescence of cells expressing the mutant preprocathepsin L-GFP (C25A) fusion protein in response to treatment with several inhibitors. Panel C. Percentage of viable cells expressing the wild type fusion protein after treatment with inhibitors. Panel D. The percentage of viable cells expressing the mutant fusion protein as described in Panel C.
Cell Viability Assay—The number of viable cells was evaluated by the MTT dye reduction assay with modification (24). In the presence of various concentrations of inhibitors, cells were grown in 96-well plates for 48 h. MTT reagent was then added to a final concentration of 0.5 mg/ml, and incubation at 37° C. in 5% CO2 was continued for 4 h. The resulting insoluble formazan crystals were solubilized by resuspending the cells in 100 μl of DMSO per well. Absorbance of converted dye was measured at 550/690 nm on SpectraMAX 250 (Molecular Devices). Assay values obtained from control cells were taken as 100%.
(In general: Formazan colour is commonly taken as a measure of viable cells.)

Data set [5] has as its target T2, cathepsin L. Description: Intracellular cathepsin L assay, wild type preprocathepsin L-GFP in HeLa-rtTA cells, 96-well plate reader. The format is cell-based. To be noted: 48 h; for Effect on overall level of GFP fluorescence: 0-60 μM. As to the method:
as §1
as §4, with “Panel D. The percentage of viable cells expressing the mutant fusion protein as described in Panel C.” left out
Proteolytic Assays—For in vitro assays, purified GFP-His protein (100 μg) was incubated with 400 nM cathepsin L for 4.5 h. Aliquots were analyzed periodically to monitor the fluorescence using a CytoFluor plate reader (PerSeptive Biosystems, Framingham, Mass.) with cut-off filters of 488 nm (excitation) and […] (emission). […] For cell-based assays, stably transfected HeLa cells (stable pools) of either wild type cathepsin L-GFP or mutant cathepsin L-GFP fusions were grown in presence or absence of cathepsin inhibitors, and GFP fluorescence was monitored with various detection methods. […] Cells from one set of plates were harvested by trypsinization, resuspended in PBS, and GFP fluorescence was subsequently determined with flow cytometry. […] The cells were grown for an additional 24 h and GFP fluorescence was measured as described above. For detection with the CytoFluor plate reader, cells (400,000 cells/ml) in a total volume of 250 μl per well, were cultured in 96-well microplates. […] After the removal of medium, 200 μl of PBS was added to each well and the plates were scanned to monitor GFP fluorescence. Background fluorescence was determined from negative control cells (-doxycycline), and was subtracted from the fluorescence values obtained from induced cells that were cultured with various concentrations of inhibitors.

Data set [6] has as its target T3, caspase 8 (Homo sapiens, UniProt Q14790).
T3 construct: endogenous in cells; host or cells: Jurkat-rtTA cells
Description: Cell-based assay for caspase 8 in Jurkat cells (GFP double mutant, anti-Fas Ab, guanidine-HCl). The text has this:
Two factors are particularly important for the successful conversion of GFP into a preferred protease substrate: (i) the cleavage of the accessible substrate recognition sequence and (ii) the susceptibility of the cleaved GFP relative to the intact (non-cleaved) GFP towards unfolding. In the present work, it was preferred to introduce two cleavage sites in order to sufficiently destabilize GFP so that rapid unfolding could be observed at pH 5.5 in vitro. This is represented by a Scheme in FIG. 6. FIG. 6 is a graphical depiction of fluorescence as a function of the duration of exposure to guanidine-HCl. The assay was performed in Jurkat cells, using an anti-Fas Ab for caspase 8 activation. The assay is run in a 96-well plate format, using the Cytofluor plate reader. […] Without addition of Guanidine-HCl, no change in fluorescence was observed. However, a functional cellular assay (i.e. with a fluorescence readout) was obtained by incubating the cells with the denaturing agent Guanidine-HCl prior to analysis.
Without addition of Guanidine-HCl, no change in fluorescence is observed. However, a functional cellular assay (i.e. with a fluorescence readout) was obtained by incubating the cells with the denaturing agent Guanidine-HCl prior to analysis (FIG. 6).
The assay was performed in Jurkat cells and the GFP substrate was delivered by means of transient transfection. […]

SMILES strings stand for the structures. Entries after “also recorded” stand apart in the source; their conditions may differ. Residues, ends and D or L forms follow the SMILES beside them. *: point of attachment. Cbz = O=C(OCc1ccccc1)*; CHN2 = [N-]=[N+]=C*; CH2F = FC*

T1 sequence (P07711 114-333 C138A): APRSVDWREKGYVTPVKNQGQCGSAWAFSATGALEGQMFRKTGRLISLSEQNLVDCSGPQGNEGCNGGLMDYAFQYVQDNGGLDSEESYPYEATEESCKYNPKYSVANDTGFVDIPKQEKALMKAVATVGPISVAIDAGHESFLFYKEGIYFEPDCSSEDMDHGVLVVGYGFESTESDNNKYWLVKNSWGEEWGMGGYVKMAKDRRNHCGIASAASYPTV
T3 sequence (Q14790 217-374 limits assumed): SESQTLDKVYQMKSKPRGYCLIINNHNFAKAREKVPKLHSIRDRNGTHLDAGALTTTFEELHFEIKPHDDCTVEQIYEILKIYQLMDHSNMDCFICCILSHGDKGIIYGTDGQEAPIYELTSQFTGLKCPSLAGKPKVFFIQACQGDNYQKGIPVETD
T3 sequence (Q14790 385-479 limits assumed): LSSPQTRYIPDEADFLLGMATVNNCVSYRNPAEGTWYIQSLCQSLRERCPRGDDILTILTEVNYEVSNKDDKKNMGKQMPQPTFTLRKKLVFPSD

Consider `CC(C)C[C@H](NC(=O)OCc1ccccc1)C(=O)N[C@@H](CC(C)C)C(=O)N[C@@H](Cc1ccc(O)cc1)C(=O)C=[N+]=[N-]` [Cbz-LeuLeuTyr-CHN2] (Cbz-Leu-Leu-Tyr-CHN2), for which, in data set [1], the “Fluorescence of cells expressing mutant non-active fusion protein” value is reported as “small increase”. Besides, the GFP fluorescence entry in data set [2] (35 μM inhibitor, doxycycline) is “significant increase”. Moreover, the “Increase of fluorescence (fluorescence index)” value in data set [2] (inhibitor concentration increased from 0 to 35 μM) was “up to 5 fold”. Further, the GFP fluorescence entry in data set [3] is on record as “virtually no change; also recorded: remained unchanged”. Moreover, in data set [4], the “Effect on cell viability” value is “inversely proportional to the inhibitor concentration” and the Cell viability entry is recorded as “approximately 50%”. For the same compound, in data set [5], the “Effect on overall level of GFP fluorescence” value (“Effect on overall level” for short) is recorded as “dose-dependent increase”. The “Fluorescence increase relative to control cells without inhibitor” value in data set [5] (60 μM) is 20 fold.
Take `COC(=O)C[C@H](NC(=O)[C@H](C)NC(=O)[C@@H](NC(=O)OCc1ccccc1)C(C)C)C(=O)CF` [Z-VAD-FMK] (Cbz-Val-Ala-Asp(OMe)-CH2F): in data set [6] (Fas-dependent hydrolysis of GFP, guanidine-HCl before reading), the “Response of fluorescence with inhibitor concentration” value is reported as “dose-dependent response”. The “Hydrolysis of GFP mutant in response to Fas-induced apoptosis” value in data set [6] (Jurkat-rtTA cells, Western with polyclonal anti-GFP Ab) is recorded as “inhibited”.
As for `CC(C)C[C@H](NC(=O)OCc1ccccc1)C(=O)N[C@@H](CC(C)C)C(=O)N[C@@H](Cc1ccc(O)cc1)C(=O)CF` [Cbz-LeuLeuTyr-CH2F] (Cbz-Leu-Leu-Tyr-CH2F), in data set [4], the “Effect on cell viability” value is given as “inversely proportional to the inhibitor concentration” and the Cell viability entry is reported as “approximately 50%”. Further, the “Effect on overall level” value in data set [5] is “no significant effect”.
As for `CC(C)C[C@H](NC(=O)[C@H]1O[C@@H]1C(=O)O)C(=O)NCCCCN=C(N)N` (relative stereo) [E-64, N-[N-(L-3-trans-carboxyoxirane-2-carbonyl)-L-leucyl]amino-4-guanidinobutane], the “Effect on cell viability” value in data set [4] is listed as “Almost no effect”. In data set [5], the “Effect on overall level” value is “no significant effect”.
